From patent publication US6225478A, “Iridoid derivatives and neovascularization inhibitors containing the same as active ingredient” (Tsumura & Co., priority 1999, dated 2001) come the findings set out here.

Values after ≈ are worked out from the molar mass of the structure shown. Like-named read-outs stand apart in the source and are kept apart here. Bounds are passed on as bounds.

Type in all cases: cell-based
Assay [1] concerns human umbilical-vein endothelial cells (HUVEC). Nature of the assay: Cell Migration Assay (CMA) Test, HUVEC (% relative to control). The note with it: 24 hours, 60% or less = remarkable inhibition; for activity at 1 µg/mL / activity at 10 µg/mL: Homo sapiens, HUVEC, read-out: CMA (% relative to control). The procedure, abridged: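 Confluent 7th-subculture HUVEC monolayers scraped with razor blade, then given M199 (2+) plus 40 or 4 μl of 1 mg/ml sample (in 5% DMSO-PBS) per 4.0 ml medium for 24 h at 37 °C. Methanol-fixed, Giemsa-stained; newly migrated cells counted microscopically in 1 mm×1 mm blocks, expressed versus M199 (2+) control.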

For assay [2] the test system is unchanged. Briefly: Tube Formation Assay (TFA) Test, HUVEC in collagen gel. The note with it: 20 hours, 40% or less judged remarkable; for inhibition at 1 µg/mL / inhibition at 10 µg/mL: Homo sapiens, HUVEC, read-out: TFA (inhibition rate, %). The procedure, abridged: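 HUVEC (7th subculture, 1×10^5 cells/ml) attached to collagen gel for 2 h at 37 °C, given sample and overlaid with collagen, then cultured 20 h at 37 °C, 5% CO2 in M-199 with 20% FCS, 30 ng/ml b-FGF and 0.1 μM PMA. Tube length measured by image analysis; % inhibition relative to positive and negative controls.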

Assay [3] has the same test system. Nature of the assay: Cell Proliferation Assay (CPA) Test, HUVEC, MTT. To be noted: M199 (2+) medium; for IC50: Homo sapiens, read-out: CPA (IC50 μg/ml). The procedure, abridged:
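HUVEC (7th subculture) seeded at 5×10^4 cells/ml in M-199 with 20% FCS, 10 ng/ml b-FGF and 10 ng/ml EGF, grown 24 h at 37 °C, 5% CO2. Compounds added from 1 mg/ml or 0.1 mg/ml samples in 5% DMSO-PBS(−), renewed with medium after 24 h, then cultured 48 h more. Read-out by MTT with 4 h incubation and SDS/HCl stop.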

Consider `COC(=O)C1=CO[C@@H](OC(=O)NCCCl)[C@@H]2[C@@H]1C[C@@H]1O[C@]21C` [compound 32, (1S,4aS,6S,7R,7aR)-1-[(2-chloroethyl)carbamoyloxy]-6,7-epoxy-1,4a,5,6,7,7a-hexahydro-7-methylcyclopenta [c] pyrane-4-carboxylic acid methylester], for which, in assay [1] (1 μg/ml), the activity at 1 µg/mL was found to be 93%. In assay [1] (10 μg/ml), the activity at 10 µg/mL came to 97%. Also, the inhibition at 1 µg/mL in assay [2] (1 μg/ml) was determined as 68.8%. Moreover, the inhibition at 10 µg/mL in assay [2] (10 μg/ml) amounted to 30%. In addition, the IC50 in assay [3] is over 100 µg/mL.
The matching figures for `CN(Cc1cnc2nc(N)nc(N)c2n1)c1ccc(C(=O)N[C@@H](CCC(=O)O)C(=O)O)cc1` [MTX, Methotrexate, reference compound]: 102%, 103%, 37.5%, 42.6% and 0.04 µg/mL (≈ 0.088 µM).
Turning to `COC(=O)C1=CO[C@@H](OC(=O)NC(=O)CCl)[C@@H]2[C@@H]1C[C@@H]1O[C@]21C` [compound 39, (1S,4aS,6S,7R,7aR)-1-(chloroacetylcarbamoyloxy)-6,7-epoxy-1,4a,5,6,7,7a-hexahydro-7-methylcyclopenta [c] pyrane-4-carboxylic acid methylester], the activity at 1 µg/mL in assay [1] (1 μg/ml) amounted to 110%. Further, the activity at 10 µg/mL in assay [1] (10 μg/ml) is 94.6%. Further, in assay [2] (20 h, 1 μg/ml), the inhibition at 1 µg/mL was found to be 37.6%. For the same molecule, in assay [2] (20 h, 10 μg/ml), the inhibition at 10 µg/mL was 39.7%. Besides, in assay [3], the IC50 was 55 µg/mL (≈ 159 µM).
Consider `CNC(=O)OC=C(C(=O)OC)[C@@H]1CC[C@]2(C)O[C@@]12CO` [compound 54, 2-[(1S,2R,3S)-2,3-epoxy-2-(hydroxymethyl)-3-methyl-2-cyclopentyl]-3-[(methylcarbamoyl)oxy] methylacrylate], for which the “CMA (% relative to control)” value in assay [1] (1 μg/ml) came to 90.5%; in assay [1] (10 μg/ml), 86.2%. In addition, the figures for the “TFA (inhibition rate, %)” value in assay [2] (1 μg/ml) and in assay [2] (10 μg/ml) were -8.6% and -12.2%, respectively. Further, the “CPA (IC50 μg/ml)” value in assay [3] is over 100.0 µg/mL.
For `CNC(=O)O[C@@H]1OC=C(C(=O)NCc2ccccc2)[C@H]2C[C@@H]3O[C@]3(C)[C@H]12` [compound 27, (1S,4aS,6S,7R,7aR)-6,7-epoxy-1,4a,5,6,7,7a-hexahydro-7-methyl-1-(methylcarbamoyloxy) cyclopenta [c]-pyrane-4-carboxylic acid benzylamide], the activity at 1 µg/mL in assay [1] (1 μg/ml) was found to be 94.5%. Also, the activity at 10 µg/mL in assay [1] (10 μg/ml) is 103%. Further, the inhibition at 1 µg/mL in assay [2] (20 h, 1 μg/ml) is 29.1%. Also, the inhibition at 10 µg/mL in assay [2] (20 h, 10 μg/ml) was 32.7%. For the same molecule, the IC50 in assay [3] is over 100 µg/mL.
The matching figures for `CNC(=O)OC1OC=C(C(=O)N2CCCC2)C2CC3OC3(C)C12` [compound 25, (1S,4aS,6S,7R,7aR)-6,7-epoxy-1,4a,5,6,7,7a-hexahydro-7-methyl-1-(methylcarbamoyloxy) cyclopenta [c]-pyrane-4-carboxylic acid pyrrolidylamide]: 91.8%, 87.5%, 31.8%, 14.5% and over 100 µg/mL.
Regarding `CNC(=O)OC[C@@H]1[C@H](C)CC[C@@H]1C1(COC(=O)NC)CO1` (stereo partly drawn) [Compound 58, 2-[(1S,2R,3R)-2-(methylcarbamoyloxy)methyl-3-methylcyclopento-1-yl]-2,3-epoxy-propane-1-methylcarbamate], the entries for the “CMA (% relative to control)” value in assay [1] (1 μg/ml) and in assay [1] (10 μg/ml) were 121.6% and 97.0%, respectively. The “TFA (inhibition rate, %)” value in assay [2] (1 μg/ml) is on record as 20.6%; in assay [2] (10 μg/ml) it was 22.3%. The “CPA (IC50 μg/ml)” value in assay [3] was over 100.0 µg/mL.
Turning to `CCCCCC[C@]12O[C@H]1C[C@@H]1C(C(=O)OC)=CO[C@@H](OC(=O)NC)[C@@H]12` [compound 44, (1S,4aS,6S,7R,7aR)-6. 7-epoxy-7-n-hexyl-1,4a,5,6,7,7a-hexahydro-1-(methylcarbamoyloxy) cyclopenta [c] pyrane-4-carboxylic acid methy:lester], in assay [1] (1 μg/ml), the activity at 1 µg/mL stood at 99.4%. For the same molecule, the activity at 10 µg/mL in assay [1] (10 μg/ml) came out at 98.2%. For the same molecule, the inhibition at 1 µg/mL in assay [2] (20 h, 1 μg/ml) was found to be 69.7%. The inhibition at 10 µg/mL in assay [2] (20 h, 10 μg/ml) is 71.4%. In addition, the IC50 in assay [3] was over 100 µg/mL.
For `COC(=O)C1=CO[C@@H](OC(N)=O)[C@@H]2[C@@H]1C[C@@H]1O[C@]21C` [compound 29, (1S,4aS,6S,7R,7aR)-1-(carbamoyloxy)-6,7-epoxy-1,4a,5,6,7,7a-hexahydro-7-methylcyclopenta [c] pyrane-4-carboxylic acid methylester], the activity at 1 µg/mL in assay [1] (1 μg/ml) stood at 89.9%. The activity at 10 µg/mL in assay [1] (10 μg/ml) turned out to be 88%. The inhibition at 1 µg/mL in assay [2] (20 h, 1 μg/ml) came out at 17.7%. In addition, in assay [2] (20 h, 10 μg/ml), the inhibition at 10 µg/mL worked out at 29.3%. For the same molecule, in assay [3], the IC50 was over 100 µg/mL.
The matching figures for `CNC(=O)OC1OC=C(C(=O)N2CC(C)OC(C)C2)C2CC3OC3(C)C12` [compound 24, (1S,4aS,6S,7R,7aR)-6,7-epoxy-1,4a,5,6,7,7a-hexahydro-7-methyl-1-(methylcarbamoyloxy) cyclopenta [c]-pyrane-4-carboxylic acid 2,6-dimethylmorpholylamide]: 96.9%, 112%, 41.3%, 24.2% and over 100 µg/mL.
In the case of `CNC(=O)OC1OC=C(C(=O)N2CCN(CCO)CC2)C2CC3OC3(C)C12` [compound 22, (1S,4aS,6S,7R,7aR)-6,7-epoxy-1,4a,5,6,7,7a-hexahydro-7-methyl-1-(methylcarbamoyloxy) cyclopenta [c]-pyrane-4-carboxylic acid 4-(2-hydroxyethyl) piperazylamide], the activity at 1 µg/mL in assay [1] (1 μg/ml) came out at 93.4%. Besides, in assay [1] (10 μg/ml), the activity at 10 µg/mL turned out to be 97.7%. In assay [2] (20 h, 1 μg/ml), the inhibition at 1 µg/mL is 50.8%. In assay [2] (20 h, 10 μg/ml), the inhibition at 10 µg/mL is 74.9%. Moreover, the IC50 in assay [3] was over 100 µg/mL.
The matching figures for `CNC(=O)O[C@@H]1OC=C(C(=O)NCCc2ccccc2)[C@H]2C[C@@H]3O[C@]3(C)[C@H]12` [compound 28, (1S,4aS,6S,7R,7aR)-6,7-epoxy-1,4a,5,6,7,7a-hexahydro-7-methyl-1-(methylcarbamoyloxy) cyclopenta [c]-pyrane-4-carboxylic acid phenylethylamide]: 94.3%, 114%, 41.3%, 36.8% and over 100 µg/mL.

In general, inhibition refers to the percentage by which the read-out fell short of the control.
